Experimental findings from a melting point compilation (Tetko et al.; mined from patent text by program, amines drawn as free bases though some values may be those of a salt) are described below.

Structures are written as SMILES. Some results are limits rather than exact numbers.

As to `COc1ccc(S(=O)(=O)N(COCC[Si](C)(C)C)c2ccccc2-c2cc(F)ccc2C(C)=O)cc1`, the melting point (usually the temperature of the solid-liquid transition) fell in the range of 94 to 95 °C. On to `CCN(CC)CCNC(=O)N1CCCC(S(=O)(=O)c2ccc(OCCOC)cc2)C1` (configuration not stated), for which the melting point lay in the range of 98 to 99 °C. For the compound `Cc1nc(-c2ncn3c2[C@@H]2CCCN2C(=O)c2c(Cl)cccc2-3)n(C)n1`, the melting point is 221 to 222 °C. For `COC(=O)c1nc(-c2ccc(Cl)c(OC)c2F)c(F)c(N)c1SC` the value was 113 to 117 °C; for `CCCCS(=O)(=O)Nc1ccc(I)cc1`, 80 to 81 °C. For `COc1cc(C)nc(NC(=S)NNC(=O)c2ccccc2)n1` the value was 193 to 195 °C. On to `CC(C)n1c(C=CC=O)c(-c2ccc(F)cc2)c(-c2ccc(F)cc2)c1C=CC=O`, for which the melting point came out at 207 °C. With `CS(=O)(=O)Nc1c([N+](=O)[O-])cnn1-c1c(F)c(F)c(C(F)(F)F)c(F)c1F`, the melting point was 163 to 168 °C. Then `CC(C)(C)OC(=O)NC(CCO)C(=O)OC(c1ccccc1)c1ccccc1` (racemic), with 125 to 129 °C; and `Nc1ccn(C2OC(CO)C(O)C2O)c(=O)c1Cl` (configuration not stated), with 197 to 199 °C. For `CC(C(=O)NO)C(=O)N(c1ccccc1)c1ccccc1` (configuration not stated) the value was 171 to 172 °C; for `CS(=O)(=O)c1ccccc1-c1ccn[nH]c1=O`, 123 to 125 °C. For `CC(O)c1csc(S(N)(=O)=O)c1` (configuration not stated) the value was 164 to 167 °C; for `CCCCC(CC)COc1cc(-c2ccccn2)nc(-c2ccccn2)c1` (configuration not stated), 58.5 °C; for `CCCn1c(COCC)nc2c(N)nc3ccc(OCCNC(=O)N4CCOCC4)cc3c21`, 203 to 208 °C. `COc1ccc2[nH]nc(N3CCN(CCCn4c(=O)[nH]c5ccccc54)CC3)c2c1` yielded a melting point of 195 to 197 °C. Then `Cc1cc(C)cc(-c2cc(C(=O)NCCCCCCCc3ccccc3)cc(-c3cc(C)cc(C)c3)c2OCCCC(=O)O)c1`, with 64 to 66 °C.

`CCN1CCN(C(=O)OC2C3=C(SCCS3)C(=O)N2c2ccc(Cl)cn2)CC1` (configuration not stated) returned a melting point of 140 °C. Then `O=C(Cl)c1c(Cl)c(Cl)c(Cl)c(Cl)c1CCl`, with 77 to 78 °C; and `CC(C)=C1CCCP1(=O)c1ccccc1` (configuration not stated), with 143 to 146 °C; and `CCC(=O)NNc1ccnc2c(NC(=O)c3c(Cl)cccc3Cl)cccc12`, with 246 to 248 °C.

`COc1cc2c(cc1Br)-c1c(Br)c3c(n1CC2)C(=O)N(C(C)(C)C)CCC3` returned a melting point of 218 to 220 °C. Then `CCOc1ccc(C(=O)Nc2ccc3ccc(Cl)nc3n2)cc1`, with 208 °C; and `Nc1ccc(-c2noc(-c3cnn4c(C(F)F)cc(-c5ccc(C(F)(F)F)c(OCC(F)(F)F)c5)nc34)n2)cn1`, with 285 °C; and `OCCN1CCC(=C2c3ccccc3Oc3ccc(Br)cc32)CC1`, with 142 to 146 °C. Then `CCCc1cc(=O)oc2cc(O)cc(O)c12`, with 227 to 229 °C. Then `COC1CN(C(=O)Nc2ccc(C(F)(F)F)cc2)N=C1c1ccc(Cl)cc1` (configuration not stated), with 185 to 186 °C; and `O=C(O)COc1cc2c(c(Cl)c1Cl)C(=O)C(c1ccccc1)C2` (configuration not stated), with 181 to 185 °C. For the compound `COc1ccc(CN(C)CCCSc2ccc(NC(=O)c3cccc4c(=O)c5cccc(SC)c5[nH]c34)cc2)cc1OC`, the melting point was determined as 142 °C. Then `Cc1nnc(C(C)(C)C)c(=O)n1N`, with 155 to 157 °C. For `CCOC(=O)C(C)c1ccc2nc(-c3ccccc3)oc2c1` (configuration not stated) the value was 46 °C; for `CCC(C)(C)c1ccc(Oc2cc(NC(=O)Nc3ccc(C#N)cc3)c(O)cc2[N+](=O)[O-])c(C(C)(C)CC)c1`, 212 to 215 °C; for `COC(=O)c1ccc(S(C)(=O)=O)cc1N`, 98.3 to 98.5 °C. On to `O=[N+]([O-])c1cccc2c1ccn2S(=O)(=O)c1cccc2ccccc12`, for which the melting point was in the range of 156 to 157 °C. Then `O=C(Nc1ccc(Oc2ccnc(NCCN3CCCCC3)n2)c2ccccc12)c1cc(F)cc(N2CCCCC2)c1`, with 88 to 89 °C; and `CCOC(=O)C(=NOCC(=O)OCC(Cl)(Cl)Cl)c1csc(N)n1`, with 138 to 141 °C; and `Clc1ncc(Cl)c(-c2ccc(Cl)c(Cl)c2)n1`, with 125 to 126 °C. With `COc1cccc(COCCCn2ccnc2)c1NC(=O)CC1c2ccccc2Oc2ccccc21`, the melting point fell in the range of 155 to 156 °C. Then `CC(C)(C)Nc1c(Nc2ccc3ncccc3c2)c(=O)c1=O`, with 234 to 236 °C; and `CC(=O)NC(=O)c1cccc(-c2noc(-c3ccccc3F)n2)c1`, with 119 to 120 °C. For `Cc1c(NCCCCNCC(O)COc2ccccc2)n(C)c(=O)n(C)c1=O` (configuration not stated) the value was 148 to 150 °C; for `Nc1ccnc(C(F)(F)F)c1`, 56 to 58 °C. For the compound `O=C(COc1ccon1)NCCO[N+](=O)[O-]`, the melting point was 67 to 69 °C.

`COC(=O)CCc1cnoc1-c1cc(Cl)c(Cl)s1` displayed a melting point of 49 to 50 °C. `CC(C)C(C(=O)O)N1CC(N)C1=O` (configuration not stated): the melting point was 178 to 183 °C.

Take `CCOc1cc(-c2cc(C(F)(F)F)n3ncc(C(=O)Nc4nc(C)c(S(N)(=O)=O)s4)c3n2)ccc1C(F)(F)F`: the melting point was 300 °C.

In the case of `O=Cc1cc(Oc2ccccc2)ccc1O`, the melting point lay in the range of 54 to 55 °C. Then `CN(C)CCCN1N=C2C(=Cc3ccccc3)CS(=O)(=O)CC2C1c1ccccc1` (configuration not stated), with 127 to 129 °C.

On to `CN(c1cccc2cc(C3=NCC(CN4CCSCC4)S3)[nH]c12)S(=O)(=O)c1ccccn1` (configuration not stated), for which the melting point lay in the range of 142 to 144 °C.

Consider `COC(Cc1ccc2oc(Cc3nc(-c4ccccc4)oc3C)cc2c1)C(=O)O` (configuration not stated), for which the melting point was in the range of 159 to 160 °C. For `CC(C)Cn1c(=O)n(C)c(=O)c2c(SCCCO)c(Cc3cccnc3)sc21` the value was 119 to 121 °C. For `OCc1nc(-c2ccc3c(c2)Nc2ccccc2S3)cs1` the value was 120 to 122 °C. Take `O=C(Oc1ccc(Oc2ccc(C(F)(F)F)cn2)cc1)N1CCN(c2ncccc2C(F)(F)F)CC1`: the melting point was in the range of 131 to 132 °C. For `N#CC1CN(C(=O)[C@H](NC(=O)c2c[nH]c3ncc(-c4ccc(C(F)(F)F)cc4)nc23)C2CC2)C1` the value was 207 to 209 °C; for `COC(=O)Nc1nc(-c2ccccc2)c(-c2nc3ccccc3c(=O)n2-c2ccccc2C)s1`, > 275 °C. Then `CC(C)n1nc(-c2nc(C#Cc3cncn3C)c(N)nc2-c2ccccc2)ccc1=O`, with > 250 °C; and `COC(=O)c1cc(C(=O)OC)n(-c2ccc(N)cc2C(=O)c2ccccc2)n1`, with 171 to 172 °C; and `CN1C(=O)Nc2ccccc2C1(O)C(=O)NC(N)=O` (configuration not stated), with > 280 °C. For `Cc1cc(-c2cc(C(F)(F)F)n3ncc(-c4nc(-c5ccnc(N)c5)no4)c3n2)ccc1C(F)(F)F` the value was 245 °C; for `Cc1cc(C(=O)N2CCCCC2)ccc1[N+](=O)[O-]`, 71.7 to 72.2 °C. Consider `O=C(O)c1cc(S)n2ncnc2n1`, for which the melting point was in the range of 230 to 232 °C. For `ClCCOc1cccc(OCCCl)c1` the value was 104 to 105 °C; for `CC(=O)N1CC(=Cc2ccncc2)C(=O)c2ccccc21`, 170 °C.

`CC1(C)Oc2ccc(C#N)cc2C(Oc2cccnn2)C1(C)O` (configuration not stated) registered a melting point of 93 to 105 °C. Then `O=C1Cc2cc3ccccc3cc2C(c2ccccc2Cl)N1` (configuration not stated), with 234 to 237 °C. In turn, `Cc1sc(-n2cccc2)c(C#N)c1C` registered a melting point of 45 °C.

As for `CCOC(=O)c1cnc2n(c1=O)C(C)CCC2N(C)c1ccccc1` (configuration not stated), the melting point lay within 175 to 178 °C.

`CCNC(=O)Nc1cc(C(C)(C)C)c2c(c1)C(C)(C)CO2` gave a melting point of 197 to 198 °C. Then `CCOC(=O)c1cnn2c1nc(NC)c1cnc3c(cnn3CC)c12`, with 321 to 322 °C; and `CCCn1c(COCC)nc2c(N)nc3cc(O)ccc3c21`, with > 250 °C; and `CC(C)(C)OC(=O)NN=C(c1ccccc1)c1ccncc1`, with 134 °C.

Turning to `COC(=O)C1CC(=O)N(Cc2ccccc2)C1` (configuration not stated), the melting point lay within 63 to 65 °C.

Consider `N#Cc1cnc2cnc(F)cc2c1Nc1ccc(Oc2ccccc2)cc1`, for which the melting point fell in the range of 211 to 213 °C.

Turning to `CC(C)c1ccc(-n2nc(C(F)(F)F)cc2-c2ccc(S(C)(=O)=O)cc2)cc1`, the melting point was in the range of 144 to 146 °C. For `CC(C)(C)c1ccc(CCC(O)CC2CCCCC2)cc1NC(=O)CC1c2ccccc2Oc2ccccc21` (configuration not stated) the value was 141 to 142 °C; for `COc1cc(N2C(=O)N(C)CC2O)c(F)cc1Cl` (configuration not stated), 138 to 140 °C. In turn, `CNC(=C[N+](=O)[O-])NCCSCc1ccsn1` displayed a melting point of 118 to 120 °C. For `CC(C)=CCN1CCN(CCC(=O)N2c3ccccc3C(=O)Nc3cccnc32)CC1` the value was 199 to 201 °C; for `Cc1nc(NC(=O)c2cnn3c(C(F)(F)F)cc(-c4ccc(C(F)(F)F)cc4)nc23)sc1S(N)(=O)=O`, 303 °C; for `COC(=O)CCCN1CCC(CNC(=O)[C@@H]2CCCN2S(=O)(=O)c2ccc(Cl)c(COc3cccc4c(-n5ccnc5)cc(C)nc34)c2Cl)CC1`, 98 °C. For `CCOC(=O)Cc1ccc(NC(=O)C(COc2ccccc2)NS(=O)(=O)c2ccc(F)cc2)cc1` (racemic) the value was 122 to 124 °C; for `O=C(O)CNC(=O)CC1=C(n2nc(-c3c(-c4ccccc4)nn4ccccc34)ccc2=O)CCCC1`, 190 to 192 °C. For `Fc1ccc2c(NCc3ccccc3)nc(-c3cccnc3)nc2c1` the value was 199 to 203 °C; for `CCC(C(=O)N(C)C)n1cc(C)c(-c2ccc(Cl)cc2C)n1` (configuration not stated), 89 to 92 °C. In the case of `CC(C)C1CCC(C)(OC(=O)OC2(C)CCC(C(C)C)CC2)CC1` (configuration not stated), the melting point lay within 101 to 102 °C. For `CCCCCCCCCCCCCCOc1ccc2cc(C(=O)O)oc2c1` the value was 131 to 135 °C; for `O=c1c(Cc2cccnc2)cn2c3c(cc(Cl)cc13)Oc1cc(Cl)ccc1-2`, 170 to 171 °C.
